# In patent US20120122982A1, “USE OF PUFAS TO TREAT NERVE DAMAGE” (Equateq Limited, priority 2009, published 2012):
# Key:
# Type in all cases: in vivo, rat
# diabetic rats [1] = assay: Motor nerve conduction velocity (NCV) in sciatic nerve of streptozotocin-diabetic rats; details: for motor NCV: 2-week daily oral treatment after 6 weeks untreated diabetes, diabetic around 50 m/s, non-diabetic around 60 m/s; for ED50: Rattus norvegicus, calculated from dose response curves of FIG. 13; for times more potent than GLA in restoring motor nerve conduction velocity: from ED50 values
# Protocol: (§1) Male Sprague-Dawley rats (Aberdeen University colony) were used, which were 19 weeks old at the start of the study. Diabetes was induced by intraperitoneal streptozotocin injection at 40-45 mg kg^−1 freshly dissolved in sterile 0.9% saline solution. This was verified 24 hours later by estimating hyperglycaemia (blood glucose>19.9 mM) and glycosuria, and diabetic state was monitored weekly using test strips for blood (tail vein) and urine glucose levels. Body weight was also monitored daily to check against body weight gain (which would indicate partial recovery of beta cell function and exclude diabetic status).
# (§2) After 6 weeks of untreated diabetes, four experimental groups (n=6 per group) were treated for a 2-week period, with a daily oral administration of 13-HODE at a range of dosages (13-Hydoxydienoic acid, Equateq, Isle of Lewis, UK), added to the food and dispersed in a sunflower oil vehicle. Experimental groups were treated with doses of a representative compound of the invention,13-HODE, ranging from 0.01 mg/kg/day to 100 mg/kg/day.
# Rats were anaesthetized with thiobutabarbital sodium (50-100 mg kg^−1 i.p.). The trachea was cannulated for artificial respiration.
# The sciatic nerve was exposed between the sciatic notch and knee, and Motor nerve conduction velocity (NCV) was measured using concentric bipolar electrodes, as described in Cameron N E, et al (1989) Q J Exp Physiol 74:917-926 and Cameron N E, et al (1991) Diabetes 40:532-539, in the nerve branch to tibialis anterior muscle, which is representative of the whole sciatic nerve in terms of susceptibility to diabetes and treatment effects. Evoked electromyographic (EMG) potentials from each stimulating site were averaged 8 times, and Motor NCV was calculated by dividing the distance between stimulating electrodes by the average latency difference between the onset of EMG potentials evoked from the 2 sites. Nerve temperatures were monitored by thermocouple probes, and maintained in the range 36-38° C. by radiant heat. Body temperature was also maintained around 37° C. using a heated blanket.
# Experiments were carried out in similar fashions to Examples 1 and 2 except that 15-HETrE was used instead of 13-HODE.
# An experiment was carried out in accordance with the method of Example 1 to determine the effect of GLA, 13-HODE and 15-HETrE on Motor NCV in diabetic rats.
# diabetic rats [2] = assay: Sensory nerve conduction velocity (NCV) in saphenous nerve of streptozotocin-diabetic rats; details: 2-week daily oral treatment after 6 weeks untreated diabetes, diabetic around 50 m/s, non-diabetic around 60 m/s
# Protocol: as §1, §2
# Rats were anaesthetized with thiobutabarbital sodium (50-100 mg kg^−1 i.p.). […]
# An experiment was carried out in a similar fashion to Example 1 except that Sensory NCV was measured in the saphenous nerve between groin and mid calf. Direct nerve evoked potentials were recorded at the ankle using a unipolar platinum hook electrode. […]
# diabetic rats [3] = assay: Sciatic nerve endoneurial blood flow by microelectrode polarography and hydrogen clearance; details: 1 mg/kg/day in food for 2 weeks, flow halved in diabetic rats
# Protocol: Diabetes was induced in mature (19 week old) male Sprague-Dawley by streptozotocin injection (40-45 mg/kg i.p.). The diabetic state was monitored weekly using commercially available test strips for blood (tail vein) and urine glucose levels. Body weight would also be monitored daily. The criteria for the diabetic state are; blood glucose>19.9 mM, glycosuria, and no evidence of body weight gain (which would indicate partial recovery of beta cell function). At the end of the experiments, blood samples would be taken for the determination of plasma glucose. […]
# Sciatic nerve endoneurial blood flows in non-diabetic control rats, diabetic rats treated with vehicle alone and diabetic rats treated with 13-HODE were estimated by microelectrode polarography and hydrogen clearance, using the methods described in Day T J, Lagerlund T D, Low P A (1989) Analysis of H2 clearance curves used to measure blood flow in rat sciatic nerve, J Physiol 414:35-54, and Cameron N E, Cotter M A, Low P A (1991) Nerve blood flow in early experimental diabetes in rats: relation to conduction deficits, Am J Physiol 261:E1-E8. […] The level of anaesthesia was monitored by observing any reaction of blood pressure to manipulation, and supplementary thiobutabarbital anaesthetic given as necessary. […]
# diabetic rats [4] = assay: Hargreaves plantar test, withdrawal latency to noxious thermal stimulation of the foot; details: 1 mg/kg/day in food for 2 weeks
# Protocol: (§3) Diabetes was induced in mature (19 week old) male Sprague-Dawley by streptozotocin injection (40-45 mg/kg i.p.). The diabetic state was monitored weekly using commercially available test strips for blood (tail vein) and urine glucose levels. Body weight would also be monitored daily. The criteria for the diabetic state are; blood glucose>19.9 mM, glycosuria, and no evidence of body weight gain (which would indicate partial recovery of beta cell function). At the end of the experiments, blood samples would be taken for the determination of plasma glucose.
# (§4) Experiments were designed with a reversal (intervention) paradigm: diabetic rats were untreated for 6 weeks to allow the development of neurovascular dysfunction. They were then treated over the next 2 weeks with a dose of 1 mg/kg/day of a representative compound of the invention, 13-HODE, given as a dietary supplement dispersed in the food with a sunflower oil vehicle (50 ml/2.5 kg food). […]
# Before final experiments, nociceptive latencies for withdrawal reflexes to noxious thermal stimulation of the foot were estimated by the Hargreaves plantar test using commercially available equipment (Ugo-Basile, Comerio, Italy). […] After 30 min acclimatization, a constant power infrared stimulus was focused through the glass base onto the sole of the foot and the latency for reflex foot withdrawal automatically recorded via a photoelectric monitor. […]
# diabetic rats [5] = assay: Tactile allodynia, electronic von Freys hair apparatus; details: 1 mg/kg/day in food for 2 weeks
# Protocol: as §3
# as §4, with “food). Groups of nondiabetic control rats and diabetic rats treated with vehicle alone were also studied.” for “food).”
# Tactile allodynia in non-diabetic control rats, diabetic rats treated with vehicle alone and diabetic rats treated with 13-HODE was monitored using an electronic von Freys hair apparatus. […] Allodynia was measured for each foot on one day.
# diabetic rats [6] = assay: Randall-Sellito test, mechanical pressure thresholds; details: 1 mg/kg/day in food for 2 weeks
# Protocol: as §3
# (§5) Experiments were designed with a reversal (intervention) paradigm: diabetic rats were untreated for 6 weeks to allow the development of neurovascular dysfunction. They were then treated over the next 2 weeks with a dose of 1 mg/kg/day of a representative compound of the invention, 13-HODE, given as a dietary supplement dispersed in the food with a sunflower oil vehicle (50 ml/2.5 kg food). Groups of nondiabetic control rats and diabetic rats treated with vehicle alone were also studied.
# Groups of non-diabetic control rats, diabetic rats treated with vehicle alone and diabetic rats treated with 13-HODE were obtained as in Example 4.
# Before final experiments, nociceptive thresholds for mechanical stimulation were measured by the Randall-Sellito test . […]
# diabetic rats [7] = assay: Corpus cavernosum pressure responses to cavernous nerve stimulation
# Protocol: as §3
# as §5, with “studied. […]” for “studied.”
# Non-diabetic control rats, diabetic rats treated with vehicle alone and diabetic rats treated with 13-HODE were anaesthetized with thiobutabarbital (50-100 mg kg^−1 i.p.). […] Cavernosal pressure responses were recorded in response to 60 s periods of suprathreshold (3-5 mA) nerve stimulation at frequencies in the range 1-32 Hz (stimulus duration 1.5-2 ms). […]
# diabetic rats [8] = assay: Major pelvic ganglion blood flow by hydrogen clearance; details: 1 mg/kg/day in food for 2 weeks
Structure (SMILES),motor NCV (diabetic rats [1]),ED50 (diabetic rats [1]),times more potent than GLA in restoring motor nerve conduction velocity (diabetic rats [1]),sensory NCV (diabetic rats [2]),sciatic nerve endoneurial blood flow (diabetic rats [3]),latency of response to thermal stimuli (increased sensitivity to noxious heat) (diabetic rats [4]),tactile allodynia (threshold for foot withdrawal to tactile stimulation) (diabetic rats [5]),sensitivity to mechanical deep pressure (foot withdrawal) (diabetic rats [6]),"whole-frequency response curve versus nondiabetic controls (diabetic rats [7]; 1 mg/kg/day for 2 weeks, 2-way ANOVA p<0.01)","cavernosal pressure responses to nerve stimulation: diabetic deficit (diabetic rats [7]; 1 mg/kg/day in food for 2 weeks, stimulation 1-32 Hz)",major pelvic ganglion blood flow (diabetic rats [8])
"CCCCCC(O)/C=C/C=C\C/C=C\CCCCCCC(=O)O (stereo not shown) [15-HETrE, 15-Hydroxy-eicosa-8Z,11Z,13E-trienoic acid]",around 60 m/s,0.252 mg/kg,approximately 500 times,around 60 m/s,,,,,,,
"CCCCC/C=C\C/C=C\C/C=C\CCCCC(=O)O [GLA, gamma-linolenic acid, reference compound]",,165 mg/kg,,,,,,,,,
"CCCCCC(O)/C=C/C=C\CCCCCCCC(=O)O (stereo not shown) [13-HODE, 13-Hydroxyoctadeca-9Z,11E-dienoic acid]",around 60 m/s,0.057 mg/kg,approximately 3000 times,around 60 m/s,completely restored,completely corrected,almost completely reversed,small but statistically significant improvement,significantly greater pressure response,completely corrected,restored to within the nondiabetic range
